Literature values in patent US11351128B1, “Pharmaceutical compositions and methods of administration” (priority 2021, dated 2022).

CCN(CC)C(=S)SSC(=S)N(CC)CC [Disulfiram, tetraethyldisulfane-carbothioamide or 1-(diethylthiocarbamoyl-disulfanyl)-N,N-diethyl-methanethioamide]
soluble in water to the extent of: about 20 mg in 100 ml
